Assay results taken from patent US10272124B2, “Use of helminthostachys, ugonins or flavone-based compounds for the treatment or prevention of metabolic diseases” (National Research Institute of Chinese Medicine, Ministry …, priority 2016, dated 2019).

Columns and labels:
[1] = tested on: BRIN-BD11 cells; test: Glucose stimulated insulin secretion (HTRF insulin assay); assay type: cell-based, rat; details: below the concentration of 20 μM; 16.7 mM glucose, 20 min
Description: The clonal rat pancreatic β-cell line (BRIN-BD11) was grown as a monolayer in culture dishes at 37° C. under 5% CO2/air with 90% humidity. Cells were maintained in RPMI 1640 medium containing 10% foetal bovine serum and 5% penicillin and streptomycin mixture.
BRIN-BD11 cells were plated on 24-well plates (0.5×10^5 cells/well) and incubated for 48 hours with media containing 5.6 mM glucose. Before performing acute insulin secretion test, cells were pre-incubated with 1.1 mM glucose in Krebs-Ringer Bicarbonate Buffer for 45 min at 37° C. Then, cells were challenged with vehicle (DMSO) or various ugonins in 16.7 mM glucose in Krebs-Ringer Bicarbonate Buffer for 20 min. The media were collected for insulin determination. Insulin concentrations were quantified by the Homogeneous Time-Resolved Fluorescence (HTRF) insulin assay and normalized to a million of total cell numbers.
Data were presented as mean±standard error of the mean. Statistical analyses were performed using GraphPad Prism (GraphPad, CA, USA). Single parameter-based comparisons were obtained from the unpaired student's t-test. P values less than 0.05 and 0.01 were considered to be significant.

[2] = tested on: Akt; test: Akt kinase activity assay (GSK3-α phosphorylation, Western blotting); assay type: biochemical
Description: Akt kinase activity was determined by commercial Akt assay kit according to the manufacturer's directions. Phosphorylation states of GSK3-α were determined by Western blotting, so as to evaluate the effect of various ugonins on Akt activity.

Row | SMILES | insulin secretion of BRIN-BD11 cells [1] | Akt activity [2]
1 | COc1c(-c2ccc(O)cc2)oc2c3c(cc(O)c2c1=O)OC(C)C3(C)C (stereo not shown) [ugonin C, 5-hydroxy-2-(4-hydroxyphenyl)-3-methoxy-8,9,9-trimethyl-8,9-dihydro-4H-furo[2,3-h]chromen-4-one] | significantly enhance | –
2 | CC1Oc2cc(O)c3c(=O)c(O)c(-c4ccc(O)cc4)oc3c2C1(C)C (stereo not shown) [ugonin F, 3,5-dihydroxy-2-(4-hydroxyphenyl)-8,9,9-trimethyl-8,9-dihydro-4H-furo[2,3-h]chromen-4-one] | significantly enhance | –
3 | C=C1CCCC(C)(C)[C@H]1Cc1c(O)cc2oc(-c3ccc(O)c(O)c3)cc(=O)c2c1O [ugonin J, (R)-2-(3,4-dihydroxyphenyl)-6-((2,2-dimethyl-6-methylenecyclohexyl)methyl)-5,7-dihydroxy-4H-chromen-4-one] | significantly enhance | promote Akt activity
4 | C=C1CCCC(C)(C)[C@H]1Cc1c(OC)cc2oc(-c3ccc(O)c(O)c3)cc(=O)c2c1O [ugonin K, (R)-2-(3,4-dihydroxyphenyl)-6-((2,2-dimethyl-6-methylenecyclohexyl)methyl)-5-hydroxy-7-methoxy-4H-chromen-4-one] | significantly enhance | –
5 | CC1=CCCC(C)(C)C1Cc1c(O)c(O)cc2oc3c(=O)c4c(O)cc(O)cc4oc3c12 (stereo not shown) [ugonin M, 1,3,7,8-tetrahydroxy-6-((2,6,6-trimethylcyclohex-2-en-1-yl)methyl)-11H-benzofuro[3,2-b]chromen-11-one] | significantly enhance | –
6 | CC1Oc2cc3oc(-c4ccc(O)c(O)c4)cc(=O)c3c(O)c2C1(C)C (stereo not shown) [ugonin T, 7-(3,4-dihydroxyphenyl)-4-hydroxy-2,3,3-trimethyl-2,3-dihydro-5H-furo[3,2-g]chromen-5-one] | significantly enhance | –
